Experimental findings from PMC7047272 (ACS Central Science, 2020) are described below.

Experiment [1] concerns the target β2 of mouse 20S constitutive proteasome (CP) (Mus musculus, UniProt P70195). It is filed as biochemical. The following applies: at concentrations up to 1 μM.
In experiment [2] the target is β5 of human 20S constitutive proteasome (CP) (Homo sapiens, UniProt P28074). Description: Fluorogenic substrate hydrolysis, chymotrypsin-like activity. The class given is biochemical.
In experiment [3] the target is β5i of human 20S immunoproteasome (IP) (Homo sapiens, UniProt P28062). Described as above. It is filed as biochemical.
For experiment [4], the target named is β1i (LMP2) of mouse 20S immunoproteasome (IP) (Mus musculus, UniProt P28076). Put plainly: biochemical.
Experiment [5] relates to chymotrypsin-like activity in live LCL721.145 cells (containing immunoproteasome). The class given is cell-based, human. To be noted: MeO-Suc-GLF-AMC, up to 1 μM.
In experiment [6] the target is β2i of human 20S immunoproteasome (IP) (Homo sapiens, UniProt P40306). Put plainly: Fluorogenic substrate hydrolysis, trypsin-like activity. It is filed as biochemical.
The target in experiment [7] is β2i of mouse 20S immunoproteasome (IP) (Mus musculus, UniProt O35955). Put plainly: biochemical. It is filed as biochemical.
Experiment [8] concerns the target β2 of human 20S constitutive proteasome (CP) (Homo sapiens, UniProt Q99436). Description: Fluorogenic substrate hydrolysis, trypsin-like activity. The class given is biochemical.
In experiment [9] the target is β5 of mouse 20S constitutive proteasome (CP) (Mus musculus, UniProt O55234). Put plainly: Fluorogenic substrate hydrolysis, chymotrypsin-like activity. The class given is biochemical.
The target of experiment [10] is β5i of mouse 20S immunoproteasome (IP) (Mus musculus, UniProt P28063). Put plainly: biochemical.

As usually defined, the IC50 is the concentration that gives 50% inhibition. As for `CCCCCCC/C=C/C=C/C(=O)N[C@H](C(=O)N[C@H]1C[C@@H](O)CCNC(=O)/C=C/[C@H](C)NC1=O)[C@@H](C)O` [GlbA, glidobactin A], the “effect on β2 of the constitutive proteasome” value in experiment [1] is reported as “almost unaffected”. In addition, the IC50 in experiment [2] was found to be 0.0036 µM; in [3] it was 0.025 µM; in experiment [4] it was 0.25 µM; in [6], 0.042 µM; in experiment [7], 0.0014 µM; in experiment [8], 0.015 µM. For the same compound, the IC50 was 0.00065 µM in experiment [9] and 0.0011 µM in experiment [10]. Moreover, the “inhibition of chymotrypsin-like activity in live cells (cell permeability)” value in experiment [5] is “inactive”. In experiment [7], the “selectivity β2/β2i” value is reported as over 714.
In the case of `CCCCCCC/C=C/C=C/C(=O)N[C@H](C(=O)N[C@H]1CCCCNC(=O)/C=C/[C@H](C)NC1=O)[C@@H](C)O` [LumA, luminmycin A], the IC50 worked out at 0.039 µM in experiment [2]; 1.6 µM in experiment [3]; 0.17 µM in experiment [6]; 0.26 µM in experiment [8]; 0.032 µM in [9]; 0.0089 µM in experiment [10]. In experiment [5], the “inhibition of chymotrypsin-like activity in live cells (cell permeability)” value was “inactive”.
